Data published in PMC4257840 (Journal of Medicinal Chemistry, 2014).
Like-named read-outs stand apart in the source and are kept apart here.

Tests used:
Der p 1 = molecular target: T1, Der p 1 (Dermatophagoides pteronyssinus, UniProt P08176); experiment: biochemical; format: biochemical
T1 sequence (P08176 99-320): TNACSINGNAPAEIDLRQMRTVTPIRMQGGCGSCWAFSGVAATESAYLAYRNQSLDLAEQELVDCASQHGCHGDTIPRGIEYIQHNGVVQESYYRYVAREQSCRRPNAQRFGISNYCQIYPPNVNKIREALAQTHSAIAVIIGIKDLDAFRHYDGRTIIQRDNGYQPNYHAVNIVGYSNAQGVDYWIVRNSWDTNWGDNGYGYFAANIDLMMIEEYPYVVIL
Procedure: Automated screening of inhibitory activity toward group 1 HDM peptidase allergens was performed as described elsewhere[25],[43] with the minor modification that Der p 1 or Der f 1 were incubated with inhibitors for 20 min prior to initiation of reactions by addition of substrate. In initial screening, the activity of each compound was measured using a series of 10 doubling dilutions from a starting concentration of 50 μM. […] Assays were performed in triplicate for calculation of mean ± SE IC50 values.

human liver Cat B = human liver Cat B (Homo sapiens, UniProt P07858); experiment: Cathepsin B inhibition assay; conditions: for IC50: read-out: Cat B IC50, mean ± SE
Procedure: Inhibition of Cat B was measured as described with modifications.[25] […] Progress curves were followed at 30 °C by detection of fluorescence at 320/420 nm (excitation/emission).
In all cases, for reactions involving inhibitors, the amount of reaction buffer was adjusted to 60 μL, the inhibitor added as a 10 μL aliquot, and incubated for 20 min with the enzyme prior to reaction start.

[1] = Measurement of LogD7.4 (n-octanol/PBS shake); format: physicochemical; conditions: single determination, n-octanol/PBS pH 7.4; read-out: Log D7.4
Procedure: Appendix 4. Measurement of LogD7.4
Test compounds (~1 mg) were weighed into 2 mL HPLC vials. n- Octanol (0.7 mL), pre-saturated with 10 mM phosphate buffered saline pH7.4 (PBS), was added to each vial followed b y PBS (0. 7 mL), which had been pre-saturat ed with n-octanol. The mixtures were shaken for 90 min and then centrifuged for 10 min at 4,000 rpm. The upper organic l ayer (0.2 m L) and the aqueous la yer (0.5 mL) were removed from each vial and anal yz e d b y LC -MS. Mass spect ral anal ysis was used to confirm peak identity whilst the concentration of compound was assessed by a diode arra y det ecto r. The logD for each compound was calculated b y takin g th e lo g of its concentration ratio between the oct anol and aqueous la ye r s.Given the robustness of the assa y and the fact that the info rmation was us ed onl y for gen eral guid ance, thes e measu rements were based on singlicate det erminations.

[2] = test system: nonsensitized rats challenged with a natural mixture of HDM allergens; conditions: i.t. aerosol typically 60-360 min prior to allergen challenge, unsensitised BN rats

Compound | IC50 (Der p 1) | IC50 (Der p 1; mean ± SE) | IC50 (human liver Cat B) | logD at 1.5 h [1] | duration of protection: trend of inhibition of eosinophil recruitment with increasing pre-treatment interval [2] | inhibition of Cat B (human liver Cat B; at 2.5 μM)
Cc1n[nH]c(C)c1C(=O)N[C@H](C(=O)N[C@@H](C)C(=O)NC(C(=O)C(=O)NCc1ccccc1)C(C)C)C(C)(C)C (mixture of isomers) [Compound 30] | 0.067 ± 0.01 µM |  |  |  |  | 
CC(C)C(NC(=O)[C@H](C)NC(=O)[C@H](Cc1ccccc1)NC(=O)c1ccccc1)C(=O)C(=O)NC1CCOCC1 (mixture of isomers) [Compound 33] |  | 0.055 ± 0.004 µM | 0.311 ± 0.006 µM |  |  | 
CCCC[C@H](NC(=O)[C@H](C)NC(=O)[C@H](Cc1ccccc1)NC(=O)c1ccccc1)C(=O)CN1CCCC1 [Compound 3] |  | 0.065 µM |  |  |  | 
CCCC[C@H](NC(=O)[C@H](C)NC(=O)[C@H](Cc1ccccc1)NC(=O)c1ccccc1)C(=O)C(=O)N1CCCC1 [Compound 4] |  | 0.997 µM |  |  |  | 
CC(C)[C@H](NC(=O)[C@H](C)NC(=O)[C@H](Cc1ccccc1)NC(=O)c1ccccc1)C(=O)C(=O)NCc1ccccc1 [Compound 20] |  | 0.012 ± 0.002 µM | 0.05 ± 0.005 µM |  |  | 
C[C@H](NC(=O)[C@H](Cc1ccccc1)NC(=O)c1ccccc1)C(=O)N[C@H](C(=O)C(=O)NC1CCCCC1)C(C)(C)C [Compound 21] |  | 9.17 ± 0.88 µM |  |  |  | 
CC(C)[C@H](NC(=O)[C@H](C)NC(=O)[C@@H](NC(=O)c1ccccc1)C(C)(C)c1ccccc1)C(=O)C(=O)NCc1ccccc1 [Compound 23] |  | 0.042 ± 0.006 µM | 0.446 ± 0.011 µM |  |  | 
CCC[C@H](NC(=O)[C@H](Cc1ccccc1)NC(=O)c1ccccc1)C(=O)N[C@H](C(=O)C(=O)NC1CCCCC1)C(C)C [Compound 24] |  | 0.164 ± 0.024 µM | 0.067 ± 0.001 µM |  |  | 
CC(C)[C@H](NC(=O)[C@H](C)NC(=O)[C@@H](NC(=O)c1cccc2ccccc12)C(C)(C)C)C(=O)C(=O)NC1CCCCC1 [Compound 25] |  | 0.02 ± 0.003 µM | 0.721 ± 0.035 µM | 4.3 |  | 
CC(C)[C@H](NC(=O)[C@H](C)NC(=O)[C@@H](NC(=O)c1ccnc2ccccc12)C(C)(C)C)C(=O)C(=O)NC1CCCCC1 [Compound 26] |  | 0.013 ± 0.002 µM | 0.628 ± 0.047 µM | 3.5 |  | 
CC(C)[C@H](NC(=O)[C@H](C)NC(=O)[C@@H](NC(=O)c1ccnc2ccccc12)C(C)(C)C)C(=O)C(=O)NCc1ccccc1 [Compound 27, Quinoline-4-carboxylic Acid {(S)-1-[(S)-1-((S)-1-Benzylaminooxalyl-2-methyl-propylcarbamoyl)-ethylcarbamoyl]-2,2-dimethyl-propyl}-amide] |  | 0.018 ± 0.001 µM | 3.4 ± 0.187 µM | 3.4 | rise to a peak | 
CC(C)[C@H](NC(=O)[C@H](C)NC(=O)[C@@H](NC(=O)C1CCN(C)CC1)C(C)(C)C)C(=O)C(=O)NCc1ccccc1 [Compound 31] |  | 0.019 ± 0.002 µM | 0.283 ± 0.05 µM |  |  | 
CC(C)[C@H](NC(=O)[C@H](C)NC(=O)[C@H](Cc1ccccc1)NC(=O)c1ccccc1)C(=O)C(=O)NC1CCN(C)CC1 [Compound 34] |  | 0.115 ± 0.014 µM |  |  |  | 
CC(C)[C@H](NC(=O)[C@H](C)NC(=O)[C@@H](NC(=O)c1ccccc1)C(C)(C)C)C(=O)C(N)=O [Compound 36] | 0.006 ± 0.002 µM |  | 0.02 ± 0.003 µM | 1.7 |  | 
CNC(=O)C(=O)[C@@H](NC(=O)[C@H](C)NC(=O)[C@@H](NC(=O)c1ccccc1)C(C)(C)C)C(C)C [Compound 37] |  | 0.024 ± 0.005 µM | 0.494 ± 0.02 µM |  |  | 
CC(C)[C@H](NC(=O)[C@H](C)NC(=O)[C@@H](NC(=O)c1ccccc1)C(C)(C)C)C(=O)C(=O)NCc1ccc(S(N)(=O)=O)cc1 [Compound 39] |  | 0.006 ± 0.001 µM | 0.984 ± 0.164 µM |  |  | 

Compound | IC50 (Der p 1) | IC50 (Der p 1; mean ± SE) | IC50 (human liver Cat B) | logD at 1.5 h [1] | duration of protection: trend of inhibition of eosinophil recruitment with increasing pre-treatment interval [2] | inhibition of Cat B (human liver Cat B; at 2.5 μM)
CC(C)[C@H](NC(=O)[C@H](C)NC(=O)[C@@H](NC(=O)c1ccccc1)C(C)(C)C)C(=O)C(=O)NCc1ccc(C(F)(F)F)cc1 [Compound 40] |  | 0.047 ± 0.007 µM |  |  |  | 
CC(C)[C@H](NC(=O)[C@H](C)NC(=O)[C@@H](NC(=O)c1ccccc1)C(C)(C)C)C(=O)C(=O)NCc1ccc(CN(C)C)cc1 [Compound 41] |  | 0.008 ± 0.001 µM | 0.242 ± 0.031 µM |  |  | 
CC(C)[C@H](NC(=O)[C@H](C)NC(=O)[C@@H](NC(=O)c1ccccc1)C(C)(C)C)C(=O)C(=O)N[C@H](C)c1ccccc1 [Compound 42] |  | 0.017 ± 0.002 µM | 0.459 ± 0.028 µM |  |  | 
CC(C)[C@H](NC(=O)[C@H](C)NC(=O)[C@@H](NC(=O)c1ccccc1)C(C)(C)C)C(=O)C(=O)N[C@@H](C)c1ccccc1 [Compound 43] |  | 0.117 ± 0.034 µM |  |  |  | 
CC(C)[C@H](NC(=O)[C@H](C)NC(=O)[C@@H](NC(=O)c1ccccc1)C(C)(C)C)C(=O)C(=O)NCc1cn[nH]c1 [Compound 44] | 0.011 ± 0.002 µM |  | 0.367 ± 0.034 µM |  |  | 
CC(C)[C@H](NC(=O)[C@H](C)NC(=O)[C@H](Cc1ccccc1)NC(=O)c1ccccc1)C(=O)C(=O)NCC(=O)N1CCCCC1 [Compound 46] | 0.014 ± 0.003 µM |  | 0.081 ± 0.006 µM | 2.6 |  | 
CC(C)[C@H](NC(=O)[C@H](C)NC(=O)[C@@H](NC(=O)c1ccccc1)C(C)(C)C)C(=O)C(=O)NCC(=O)N1CCN(C)CC1 [Compound 48] |  | 0.014 ± 0.002 µM | > 2.5 µM | 1 |  | no significant inhibition
CC(C)[C@H](NC(=O)[C@H](C)NC(=O)[C@H](Cc1ccccc1)NC(=O)c1ccccc1)C(=O)C(=O)NCC(=O)N1CCN(C(C)C)CC1 [Compound 49] |  | 0.004 ± 0.001 µM | > 2.5 µM | 1.6 |  | 
CC(C)[C@H](NC(=O)[C@H](C)NC(=O)[C@H](Cc1ccccc1)NC(=O)c1ccccc1)C(=O)C(=O)N[C@@H](C)C(=O)N1CCN(C)CC1 [Compound 50] |  | 0.01 ± 0.001 µM | > 2.5 µM |  |  | 
CC(C)[C@H](NC(=O)[C@H](C)NC(=O)[C@@H](NC(=O)c1ccccc1)C(C)(C)C)C(=O)C(=O)NCC(=O)N1CCc2ccccc2C1 [Compound 51] | 0.006 µM |  | 0.511 ± 0.088 µM | 3.5 |  | 
CC(C)[C@H](NC(=O)[C@H](C)NC(=O)[C@@H](NC(=O)c1ccccc1)C12CC3CC(CC(C3)C1)C2)C(=O)C(=O)NCC(=O)N1CCN(C)CC1 [Compound 54] |  | 0.005 µM | > 2.5 µM |  | waned | 
CC(C)[C@H](NC(=O)[C@H](C)NC(=O)[C@@H](NC(=O)c1ccnc2ccccc12)C(C)(C)C)C(=O)C(=O)NCC(=O)N1CCN(C(C)C)CC1 [Compound 55] |  | 0.003 µM | > 2.5 µM |  |  | 
CC(C)[C@H](NC(=O)[C@H](C)NC(=O)[C@@H](N1Cc2ccccc2C1=O)C(C)(C)C)C(=O)C(=O)NCc1ccc(S(N)(=O)=O)cc1 [Compound 56] |  | 0.003 µM | 3.05 ± 1.13 µM |  |  | 
CNC(=O)c1ccc(CNC(=O)C(=O)[C@@H](NC(=O)[C@H](C)NC(=O)[C@@H](N2Cc3ccccc3C2=O)C(C)(C)C)C(C)C)cc1 [Compound 57] |  | 0.004 µM | 3.57 ± 0.85 µM |  | rise to a peak | 
CC(C)[C@H](NC(=O)[C@H](C)NC(=O)[C@@H](N1Cc2ccccc2C1=O)C(C)(C)C)C(=O)C(=O)NCc1ccc(CN(C)C)cc1 [Compound 58] |  | 0.004 µM | 2.85 ± 0.662 µM |  |  | 
CC(C)[C@H](NC(=O)[C@H](C)NC(=O)[C@@H](NC(=O)c1cccc2ccccc12)C(C)(C)C)C(=O)C(=O)NCc1ccc(S(N)(=O)=O)cc1 [Compound 59] |  | 0.004 µM | 0.532 ± 0.136 µM |  |  | 
